These results are taken from article PMC7265341, “Quantifying CDK inhibitor selectivity in live cells” (Nature Communications, 2020).

One test deals with CDK3/Cyclin E1 (Homo sapiens, UniProt Q00526). In words: NanoBRET live-cell target engagement, CDK3-NanoLuc/Cyclin E1 in HEK-293. Format: binding. A general note: Bioluminescence resonance energy transfer reports proximity on the nanometre scale.
The target in a further test is CDK2/Cyclin E1 (Homo sapiens, UniProt P24941). Nature of the test: NanoBRET live-cell target engagement, CDK2-NanoLuc/Cyclin E1 in HEK-293. In kind it is binding. As to conditions: for IC50: read-out: IC50.
The mark [1] stands for this setting: CDK3/E1, average, read-out: Inhibition at 10µM (%).
Where [2] appears, read: CDK3/E1, experiment 1, read-out: Inhibition at 10µM (%).
Setting [3] is: CDK3/E1, experiment 2, read-out: Inhibition at 10µM (%).
[4] abbreviates: CDK2/E1, average, read-out: Inhibition at 10µM (%).
Where [5] appears, read: CDK2/E1, experiment 1, read-out: Inhibition at 10µM (%).
Where [6] appears, read: CDK2/E1, experiment 2, read-out: Inhibition at 10µM (%).
Setting [7] is: 10µM, average of experiments, read-out: CDK3/E1 Inhibition at 10µM (%).
Setting [8] is: 10µM, independent experiment 1, read-out: CDK3/E1 Inhibition at 10µM (%).
Setting [9] is: 10µM, independent experiment 2, read-out: CDK3/E1 Inhibition at 10µM (%).
Setting [10] is: 10µM, average of experiments, read-out: CDK2/E1 Inhibition at 10µM (%).
The mark [11] stands for this setting: 10µM, independent experiment 1, read-out: CDK2/E1 Inhibition at 10µM (%).
Setting [12] is: 10µM, independent experiment 2, read-out: CDK2/E1 Inhibition at 10µM (%).

The structures appear in SMILES notation. Where “and” joins values, the source holds several entries; their conditions need not be identical. Equal values may be shown once. Read-outs that look alike come from different tables or passages of the source.

Chain of CDK3/Cyclin E1 (Q00526 whole entry): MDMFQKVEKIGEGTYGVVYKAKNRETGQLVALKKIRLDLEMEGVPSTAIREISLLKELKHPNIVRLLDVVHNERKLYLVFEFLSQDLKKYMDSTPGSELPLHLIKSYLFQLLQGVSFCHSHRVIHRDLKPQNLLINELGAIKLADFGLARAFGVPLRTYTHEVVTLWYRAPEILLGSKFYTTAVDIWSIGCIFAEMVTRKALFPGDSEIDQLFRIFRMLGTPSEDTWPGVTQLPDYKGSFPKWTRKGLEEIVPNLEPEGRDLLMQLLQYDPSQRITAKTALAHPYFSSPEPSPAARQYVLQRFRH
Chain of CDK3/Cyclin E1 (P24864 whole entry partner): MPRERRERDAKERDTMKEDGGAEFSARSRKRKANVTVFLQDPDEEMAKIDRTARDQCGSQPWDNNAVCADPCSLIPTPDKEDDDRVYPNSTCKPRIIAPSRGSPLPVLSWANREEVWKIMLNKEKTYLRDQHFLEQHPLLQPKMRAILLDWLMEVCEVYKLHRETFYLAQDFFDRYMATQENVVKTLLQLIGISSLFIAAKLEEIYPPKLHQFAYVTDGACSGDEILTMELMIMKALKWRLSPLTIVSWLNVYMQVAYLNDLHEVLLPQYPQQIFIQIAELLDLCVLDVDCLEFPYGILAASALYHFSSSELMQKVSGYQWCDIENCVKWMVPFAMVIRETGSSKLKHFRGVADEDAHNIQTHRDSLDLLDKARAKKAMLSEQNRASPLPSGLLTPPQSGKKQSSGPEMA

What is called Inhibition is the share of the control response that was lost under treatment. Higher therefore signals strong suppression. For the compound `CC(C)c1c2cc(-c3ccnc(N[C@H]4CC[C@H](NC5CCOCC5)CC4)n3)ccc2nn1C` [LY2857785], the “Inhibition at 10µM (%)” value is recorded as 89.1% at CDK3/Cyclin E1 (CDK3/E1, average); 89.3% at CDK3/Cyclin E1 (CDK3/E1, experiment 1); 88.9% at CDK3/Cyclin E1 (CDK3/E1, experiment 2); 85.9% on CDK2/Cyclin E1 (CDK2/E1, average); 85.1% on CDK2/Cyclin E1 (CDK2/E1, experiment 1); 86.7% on CDK2/Cyclin E1 (CDK2/E1, experiment 2). Further, the IC50 at CDK2/Cyclin E1 (CDK2/E1, average (± SEM where n=3)) was 660 nM; at CDK2/Cyclin E1 (CDK2/E1, experiment 1) it was 730 nM; on CDK2/Cyclin E1 (CDK2/E1, experiment 2), 590 nM.

With `CC(C)N1CCN(c2ccc(Nc3ncc4cc5n(c4n3)C3(CCCCC3)CNC5=O)nc2)CC1` [Lerociclib], the inhibition at 10 µM is 3.3% at CDK3/Cyclin E1 (setting [1]); 5% on CDK3/Cyclin E1 (setting [2]); 1.6% at CDK3/Cyclin E1 (setting [3]); -5.8% on CDK2/Cyclin E1 (setting [4]); -11% at CDK2/Cyclin E1 (setting [5]); -0.6% at CDK2/Cyclin E1 (setting [6]).

For `CNC(=O)c1nn(C)c2c1C(C)(C)Cc1cnc(Nc3ccc(N4CCN(C)CC4)cc3)nc1-2` [Milciclib], the inhibition at 10 µM is 77.7% on CDK3/Cyclin E1 (setting [1]); 74.4% at CDK3/Cyclin E1 (setting [2]); 80.9% at CDK3/Cyclin E1 (setting [3]); 76.6% at CDK2/Cyclin E1 (setting [4]); 75.5% on CDK2/Cyclin E1 (setting [5]); 77.7% on CDK2/Cyclin E1 (setting [6]).

For `N#CCNC(=O)c1ccc(-c2ccnc(Nc3ccc(N4CCOCC4)cc3)n2)cc1` [Momelotinib], the inhibition at 10 µM on CDK3/Cyclin E1 (setting [1]) amounted to 28.6%; at CDK3/Cyclin E1 (setting [2]) it was 27.5%; on CDK3/Cyclin E1 (setting [3]), 29.8%; at CDK2/Cyclin E1 (read-out: Inhibition at 10µM (%), CDK2/E1, average) it was 17.7%; at CDK2/Cyclin E1 (read-out: Inhibition at 10µM (%), CDK2/E1, experiment 1), 12.1%; on CDK2/Cyclin E1 (read-out: Inhibition at 10µM (%), CDK2/E1, experiment 2), 23.4%.

Turning to `CS(=O)(=O)N1CCC(NC(=O)c2[nH]ncc2NC(=O)c2c(Cl)cccc2Cl)CC1` [NVP-LCQ195], the “Inhibition at 10µM (%)” value at CDK3/Cyclin E1 (CDK3/E1, average) was 97.9%; at CDK3/Cyclin E1 (CDK3/E1, experiment 1), 98.1%; on CDK3/Cyclin E1 (CDK3/E1, experiment 2) it was 97.6%; at CDK2/Cyclin E1 (10 µM), 99.5% and 98.9%. Also, the IC50 is 36 nM at CDK3/Cyclin E1 (CDK3/E1, average (± SEM where n=3), read-out: IC50); 36 nM on CDK3/Cyclin E1 (CDK3/E1, experiment 1, read-out: IC50); 36 nM on CDK3/Cyclin E1 (CDK3/E1, experiment 2, read-out: IC50); 36 nM at CDK3/Cyclin E1 (live HEK-293, 2 h, mean ± S.E.M. (n=3) or mean (n=2), read-out: IC50 for CDK/cyclin complexes, CDK3/E1).

On to `CN1CCN(c2ccc(Nc3ncc4cc(C#N)c(=O)n(C5CCCC5)c4n3)cc2)CC1` [ON123300], for which the inhibition at 10 µM on CDK3/Cyclin E1 (setting [1]) worked out at 24.7%; on CDK3/Cyclin E1 (setting [2]), 10.5%; on CDK3/Cyclin E1 (setting [3]), 38.9%; at CDK2/Cyclin E1 (setting [4]) it was 12.6%; on CDK2/Cyclin E1 (setting [5]), 14.4%; on CDK2/Cyclin E1 (setting [6]), 10.7%.

For the compound `CN1CCC(c2c(O)cc(O)c3c(=O)cc(-c4ccccc4Cl)oc23)C1CO` (centres unmarked) [P276-00], the “Inhibition at 10µM (%)” value at CDK3/Cyclin E1 (CDK3/E1, average) stood at 51.8%; at CDK3/Cyclin E1 (CDK3/E1, experiment 1), 52.6%; on CDK3/Cyclin E1 (CDK3/E1, experiment 2), 51.0%; at CDK2/Cyclin E1 (CDK2/E1, average), 22.7%; on CDK2/Cyclin E1 (CDK2/E1, experiment 1), 16.7%; at CDK2/Cyclin E1 (CDK2/E1, experiment 2), 28.7%.

Consider `CC(C)CC(=O)Nc1[nH]nc2c1CN(C(=O)C1CCN(C)CC1)C2(C)C` [PHA-793887], for which the inhibition at 10 µM at CDK3/Cyclin E1 (setting [7]) turned out to be 93.2%; on CDK3/Cyclin E1 (setting [8]), 93.4%; on CDK3/Cyclin E1 (setting [9]) it was 93%; on CDK2/Cyclin E1 (setting [10]), 96%; at CDK2/Cyclin E1 (setting [11]) it was 95.7%; on CDK2/Cyclin E1 (setting [12]), 96.3%. For the same compound, the IC50 on CDK3/Cyclin E1 (average (± SEM where n=3), read-out: CDK3/E1 IC50) turned out to be 280 nM; at CDK3/Cyclin E1 (independent experiment 1, read-out: CDK3/E1 IC50), 165 nM; at CDK3/Cyclin E1 (independent experiment 2, read-out: CDK3/E1 IC50), 394 nM.

With `CC(C)[C@H](CO)Nc1nc(Nc2ccc(C(=O)O)c(Cl)c2)c2ncn(C(C)C)c2n1` [Purvalanol B], the inhibition at 10 µM on CDK3/Cyclin E1 (setting [7]) was determined as 39.4%; at CDK3/Cyclin E1 (setting [8]), 41.5%; on CDK3/Cyclin E1 (setting [9]) it was 37.2%; at CDK2/Cyclin E1 (setting [10]), 66.9%; on CDK2/Cyclin E1 (setting [11]) it was 79.7%; on CDK2/Cyclin E1 (setting [12]), 54%.
